Assay [1] addresses T1, hydroxy-acid dehydrogenase (enzyme solution) of L. casei ssp. casei DSM 20 011 (Lacticaseibacillus casei, UniProt A0AAN1C5W2).
T1 sequence (A0AAN1C5W2 1-333): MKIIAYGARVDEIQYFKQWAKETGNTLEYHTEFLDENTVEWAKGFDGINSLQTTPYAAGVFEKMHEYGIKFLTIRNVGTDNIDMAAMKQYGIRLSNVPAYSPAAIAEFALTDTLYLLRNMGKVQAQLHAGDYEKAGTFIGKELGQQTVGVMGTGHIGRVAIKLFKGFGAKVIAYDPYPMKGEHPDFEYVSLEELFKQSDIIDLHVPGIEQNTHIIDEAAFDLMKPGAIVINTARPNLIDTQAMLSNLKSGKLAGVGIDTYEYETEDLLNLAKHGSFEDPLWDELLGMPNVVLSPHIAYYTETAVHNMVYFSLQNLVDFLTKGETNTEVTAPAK
The assay can be described thus: Selection of a suitable enzyme: initial reaction rate with keto acid, NADH absorption at 340 nm. The class given is biochemical, Lactobacillus casei ssp. casei. The note with it: 0.15 mM keto acid, 0.2 mM NADH, pH 7.0. The protocol: (§1) The species Lactobacillus casei is currently divided into five subgroups (subspecies). […] The three keto acids KIC, KMV and KIV were used in a concentration of 0.15 mM (final concentration in the assay).
(§2) For the assay mixture, the microorganisms which had been cultured under customary conditions were harvested, the cells were disrupted by mechanical action, and the supernatant obtained by centrifugation was used as "enzyme solution" for the assay.
(§3) The assay mixture contained:
(§4) 0.1M potassium phosphate buffer, pH 7.0;
(§5) 0.020 ml of enzyme solution (0.1-0.2 mg of protein);
(§6) The initial reaction rate was determined by measuring the absorption at 340 nm as a function of time. (The reaction rate is reported in international units (IU)/min.) The results obtained are summarized below.

Assay [2] has as its system hydroxy-acid dehydrogenase (enzyme solution) of L. casei ssp. rhamosus DSM 20 021. The assay is described as above. The class given is biochemical. The note with it: 0.15 mM keto acid, 0.2 mM NADH, pH 7.0. As to the method:
as §1, §2, §3, §4, §5, §6

Assay [3] relates to hydroxy-acid dehydrogenase (enzyme solution) of L. case ssp. alactosus DSM 20 020. The description is as above. The note with it: 0.15 mM keto acid, 0.2 mM NADH, pH 7.0. The format is biochemical. The protocol:
as §1, §2, §3, §4, §5, §6

Assay [4] has as its system hydroxy-acid dehydrogenase (enzyme solution) of L. casei ssp. tolerans DSM 20 258. The assay is described as above. The class given is biochemical. The note with it: 0.15 mM keto acid, 0.2 mM NADH, pH 7.0. The protocol:
as §1, §2, §3, §4, §5, §6

For assay [5], the target named is T2, hydroxy-acid dehydrogenase (enzyme solution) of L. casei ssp. pseudoplantarum DSM 20 008 (Lacticaseibacillus paracasei, UniProt P17584).
T2 construct: the cells were disrupted by mechanical action, and the supernatant obtained by centrifugation was used as; endogenous in cells; host or cells: Lactobacillus casei ssp. pseudoplantarum DSM 20008, cell-free supernatant
T2 sequence (P17584 1-333): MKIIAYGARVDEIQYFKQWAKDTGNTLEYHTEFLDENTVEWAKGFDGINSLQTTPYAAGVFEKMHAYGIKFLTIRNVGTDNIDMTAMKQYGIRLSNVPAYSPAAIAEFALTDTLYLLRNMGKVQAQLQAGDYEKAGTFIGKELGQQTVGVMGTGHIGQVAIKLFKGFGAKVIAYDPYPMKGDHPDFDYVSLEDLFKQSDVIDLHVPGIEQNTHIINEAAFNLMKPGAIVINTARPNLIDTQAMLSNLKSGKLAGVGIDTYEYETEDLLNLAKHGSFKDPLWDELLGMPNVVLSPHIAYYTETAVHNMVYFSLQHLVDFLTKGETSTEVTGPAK
Described as above. The note with it: 0.15 mM keto acid, 0.2 mM NADH, pH 7.0. The format is biochemical, Lactobacillus casei ssp. pseudoplantarum. As to the method:
as §1, §2, §3, §4, §5, §6

The target of assay [6] is T3, hydroxy-acid dehydrogenase (enzyme solution) of L. casei ssp. pseudoplantarum DSM 20 207 (Lacticaseibacillus paracasei, UniProt P17584).
T3 sequence (P17584 1-333): T2 sequence (P17584 1-333)
The assay is described as above. The class given is biochemical, Lactobacillus casei ssp. pseudoplantarum. The note with it: 0.15 mM keto acid, 0.2 mM NADH, pH 7.0. The protocol: as §1, §2, §3, §4, §5, §6

Assay [7] concerns the target T4, hydroxy-acid dehydrogenase (enzyme solution) of L. confusus DSM 20 196 (Weissella confusa, UniProt P14295).
T4 sequence (P14295 1-310): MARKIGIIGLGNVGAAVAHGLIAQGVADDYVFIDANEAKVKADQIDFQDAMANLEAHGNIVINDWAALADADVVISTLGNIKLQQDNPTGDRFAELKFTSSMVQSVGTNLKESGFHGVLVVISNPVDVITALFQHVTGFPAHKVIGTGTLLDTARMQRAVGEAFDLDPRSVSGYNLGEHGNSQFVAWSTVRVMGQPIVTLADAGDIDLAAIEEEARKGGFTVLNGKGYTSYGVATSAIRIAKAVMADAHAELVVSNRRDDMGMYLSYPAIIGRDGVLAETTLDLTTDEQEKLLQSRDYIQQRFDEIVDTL
Described as above. The note with it: 0.15 mM keto acid, 0.2 mM NADH, pH 7.0. The class given is biochemical. The protocol: (§7) The species Lactobacillus casei is currently divided into five subgroups (subspecies). […] The three keto acids KIC, KMV and KIV were used in a concentration of 0.15 mM (final concentration in the assay). […] For the assay mixture, the microorganisms which had been cultured under customary conditions were harvested, the cells were disrupted by mechanical action, and the supernatant obtained by centrifugation was used as "enzyme solution" for the assay. Besides the various Lactobacillus casei strains, other Lactobacillus strains were also investigated; two typical representatives are listed in a table below. The assay mixture contained: 0.1M potassium phosphate buffer, pH 7.0; 0.2 mM NADH; 0.020 ml of enzyme solution (0.1-0.2 mg of protein); 0.15 mM keto acid (as shown in the table). The initial reaction rate was determined by measuring the absorption at 340 nm as a function of time. (The reaction rate is reported in international units (IU)/min.) The results obtained are summarized below.

In assay [8] the test system is hydroxy-acid dehydrogenase (enzyme solution) of L. curvatus DSM 20 019. Described as above. The format is biochemical. The note with it: 0.15 mM keto acid, 0.2 mM NADH, pH 7.0. As to the method: as §7
In assay [9] the target is T5, D-α-hydroxyisocaproic dehydrogenase from Lactobacillus casei ssp. pseudoplantarum (DSM 20008) (Lacticaseibacillus paracasei, UniProt P17584).
T5 construct: D-α-hydroxyisocaproic dehydrogenase from Lactobacillus casei ssp. pseudoplantarum (DSM 20008); endogenous in cells; host or cells: Lactobacillus casei ssp. pseudoplantarum DSM 20008 (enzyme isolated from the strain's own cells)
T5 sequence (P17584 1-333): T2 sequence (P17584 1-333)
The assay can be described thus: Enzymatic selectivity for KIC: initial reaction rates versus keto acid concentration (FIG. 1). The class given is biochemical. The note with it: change per minute in absorption at 340 nm versus keto-acid concentration, NADH present.
Text: This selectivity is illustrated in FIG. 1, which plots a measure of reaction rate (change per minute in absorption at 340 nm), in the presence of NADH and a Lactobacillus casei D-α-hydroxyisocaproicdehydrogenase, versus keto-acid concentration for KIC, KMV and KIV, respectively. In FIG. 1, .largecircle.--.largecircle. represents ketoisocaproate, O O represents ketomethylvalerate and .quadrature.----.quadrature. represents ketoisovalerate, respectively.
This entailed use of standard solutions of the three keto acids, each of known concentration (0.2 to 15 ωg/ml of assay mixture).
as §3, §4
stepped concentrations of keto acids.
The initial reaction rates (ΔA340 /min) were measured at 340 nm. […] This difference would be sufficient for a selective determination of KIC, for example, in serum.

From patent publication US5264347A, “Method for the determination of α-ketoisocaproate in biological samples using D-α-hydroxyisocaproic dehydrogenase from lactobacillus casei” (Kernforschungsanlage Juelich GmbH, priority 1988, dated 1993) come the findings set out here.

On to `CCC(C)C(=O)C(=O)O` (stereo not drawn) [KMV, ketomethylvalerate], for which the initial reaction rate in [1] worked out at 0 IU/min; in assay [2] it was 0 IU/min; in assay [3], 0 IU/min; in assay [4], 0 IU/min; in assay [5] it was 0.12 IU/min; in [6], 0 IU/min. Further, the initial reaction rate stood at 0.90 IU/min in assay [7] and 1.40 IU/min in assay [8]. For the same molecule, the “enzymatic conversion relative to the conversion of KIC (FIG. 1)” value in assay [9] is listed as “can be ignored”.
